From publication PMC6116703, “Ethenesulfonyl fluoride derivatives as telomerase inhibitors: structure-based design, SAR, and anticancer evaluation in vitro” (Journal of Enzyme Inhibition and Medicinal Chemistry, 2018)
Like-named read-outs stand apart in the source and are kept apart here.

Legend:
human melanoma cell A375 = test: Cell proliferation (MTT) assay, A375; type: cell-based
Description: (§1) The antiproliferative activities evaluation was conducted by using a modified procedure as described in the literature. Briefly, target tumour cells were grown to log phase in RPMI 1640 medium supplemented with 10% fetal bovine serum. After diluting to 3 × 10^4 cells mL^−1 with the complete medium, 100 µL of the obtained cell suspension was added to each well of 96-well culture plates. The subsequent incubation was performed at 37 °C, 5% CO2 atmosphere for 24 h before subjecting to antiproliferation assessment. The tested samples at pre-set concentrations were added to six wells with Doxorubicin (AMD) co-assayed as a positive reference. After 48 h of exposure period, 25 µL of PBS containing 2.5 mg·mL^−1 of MTT was added to each well. After 4 h, the medium was replaced by 150 µL DMSO to dissolve the purple formazan crystals produced. The absorbance at 570 nm of each well was measured using an ELISA plate reader. The data represented the mean of three experiments in triplicate and were expressed as means ± SD using Student’s test.

[1] = system: human breast cancer cell MDA-MB-231; test: Cell proliferation (MTT) assay, MDA-MB-231; type: cell-based
Description: as §1

[2] = system: human hepatoma cell SMMC-7721; test: Cell proliferation (MTT) assay, SMMC-7721; type: cell-based; conditions: read-out: IC50 SMMC-7721
Description: as §1

[3] = system: human gastric cancer cells MGC-803; test: Cell proliferation (MTT) assay, MGC-803; type: cell-based; conditions: antiproliferative, MTT, 48 h exposure; read-out: IC50 MGC-803
Description: as §1

telomerase = target: T1, telomerase (Homo sapiens, UniProt O14746); test: Telomerase activity TRAP-PCR-ELISA assay (A375 cell extract); type: biochemical; conditions: IC50 inhibitory activity against telomerase, TRAP-PCR-ELISA, A375 cells, 24 h treatment
T1 construct: endogenous in cells; host or cells: A375 human melanoma cells
Description: Thirty-six compounds were tested in a search for inhibitors of telomerase activity using the TRAP-PCR-ELISA assay. In detail, the A375 cells were firstly maintained in RPMI 1640 buffer (Hyclone, Miami, FL), supplemented with 10% fetal bovineserum (GIBCO, New York, NY), streptomycin (0.1 mg/mL) and penicillin (100 IU/mL) at 37 °C in a humidified atmosphere containing 5% CO2. After trypsinisation, 5 × 10^4 cultured cells in logarithmic growth were seeded into T25 flasks (Corning, New York, NY) and cultured to allow to adherence. […] After 24 h treatment, the cells were harvested by cell scraper orderly followed by washing once with PBS. The cells were lysed in 150 µL RIPA cell lysis buffer (Santa Cruz, Santa Cruz, CA), and incubated on ice for 30 min. The cellular supernatants were obtained via centrifugation at 12,000g for 20 min at 4 °C and stored at –80 °C. The TRAP-PCR-ELISA assay was performed using a telomerase detection kit (Roche, Basel, Switzerland) according to the manufacturer’s protocol. In brief, 2 µL of cell extracts were mixed with 48 µL TRAP reaction mixtures. TRAP primers and Taq polymerase are incubated at 25 °C for 30 min. PCR was then initiated at 94 °C, 120 s for predenaturation and performed using 35 cycles each consisting of 94 °C for 30 s, 50 °C for 30 s, 72 °C for 90 s. Then 20 µL of PCR products were hybridised to a digoxigenin (DIG)-labelled telomeric repeat specific detection probe. And the PCR products were immobilised via the biotin-labelled primer to a streptavidin-coated microtiter plate subsequently. The immobilised DNA fragments were detected with a peroxidase-conjugated anti-DIG antibody and visualised following the addition of the stop regent. The microtitre plate was assessed on TECAN Infinite M200 microplate reader (Mannedorf, Switzerland) at a wavelength of 490 nm, and the final value were presented as mean ± SD[23].

[4] = antiproliferative, MTT, 48 h exposure, read-out: IC50 A375
[5] = antiproliferative, MTT, 48 h exposure, read-out: IC50 MDA-MB-231
[6] = antiproliferative, MTT, 48 h exposure
[7] = Homo sapiens, A-375, 48 h, read-out: IC50 A375, antiproliferative, MTT, 48 h exposure
[8] = Homo sapiens, MDA-MB-231, 48 h, read-out: IC50 MDA-MB-231, antiproliferative, MTT, 48 h exposure

T1 sequence (O14746 whole entry): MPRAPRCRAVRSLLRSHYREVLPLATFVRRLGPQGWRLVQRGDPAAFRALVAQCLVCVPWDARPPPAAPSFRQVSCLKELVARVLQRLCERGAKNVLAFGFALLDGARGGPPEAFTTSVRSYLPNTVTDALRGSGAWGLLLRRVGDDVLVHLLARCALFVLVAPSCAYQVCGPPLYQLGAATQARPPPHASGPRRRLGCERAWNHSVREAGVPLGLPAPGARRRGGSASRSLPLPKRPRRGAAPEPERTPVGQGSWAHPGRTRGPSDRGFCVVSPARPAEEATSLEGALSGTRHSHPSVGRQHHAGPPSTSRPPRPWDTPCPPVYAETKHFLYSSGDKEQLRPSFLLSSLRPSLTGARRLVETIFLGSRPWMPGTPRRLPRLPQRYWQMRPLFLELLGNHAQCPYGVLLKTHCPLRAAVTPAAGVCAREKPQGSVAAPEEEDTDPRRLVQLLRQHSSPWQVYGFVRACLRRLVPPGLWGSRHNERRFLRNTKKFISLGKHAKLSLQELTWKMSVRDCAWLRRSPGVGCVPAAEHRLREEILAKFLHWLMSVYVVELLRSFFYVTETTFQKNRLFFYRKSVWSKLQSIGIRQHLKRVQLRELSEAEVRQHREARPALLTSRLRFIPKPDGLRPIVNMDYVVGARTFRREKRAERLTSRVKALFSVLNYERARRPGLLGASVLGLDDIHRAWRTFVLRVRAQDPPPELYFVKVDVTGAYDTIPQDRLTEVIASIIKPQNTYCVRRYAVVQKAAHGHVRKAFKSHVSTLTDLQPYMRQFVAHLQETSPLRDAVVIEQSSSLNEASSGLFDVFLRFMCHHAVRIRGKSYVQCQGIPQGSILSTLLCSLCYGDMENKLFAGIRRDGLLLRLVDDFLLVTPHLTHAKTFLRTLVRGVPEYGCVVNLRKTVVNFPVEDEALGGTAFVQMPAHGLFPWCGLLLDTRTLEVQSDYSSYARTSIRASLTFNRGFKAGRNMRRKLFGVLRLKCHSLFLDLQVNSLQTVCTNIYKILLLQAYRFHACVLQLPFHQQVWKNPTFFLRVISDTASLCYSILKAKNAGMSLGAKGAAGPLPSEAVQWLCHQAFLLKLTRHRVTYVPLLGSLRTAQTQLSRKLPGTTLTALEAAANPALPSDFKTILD

| Compound | IC50 (human melanoma cell A375; [4]) [µM] | IC50 [1, 5] [µM] | IC50 [2, 6] [µM] | other results |
| --- | --- | --- | --- | --- |
| CCc1ccc(/C=C/S(=O)(=O)F)cc1 [Compound 2] | 22.8 ± 0.71 | 58.6 ± 1.78 | 28.5 ± 1.47 | IC50 [3]: 28.6 ± 1.27 µM |
| O=S(=O)(F)/C=C/c1ccccc1F [Compound 73] | 11.2 ± 0.81 | 25.6 ± 0.97 |  | IC50 [3]: 57.7 ± 1.44 µM |
| Cc1ccccc1/C=C/S(=O)(=O)F [Compound 24] | 24.5 ± 1.55 | 41.8 ± 2.97 | 52.8 ± 1.44 |  |
| O=S(=O)(F)/C=C/c1ccc(C(F)(F)F)cc1 [Compound 10] | 5.43 ± 0.4 | 29.8 ± 2.31 | 40.1 ± 1.66 | IC50 [3]: 24.9 ± 0.82 µM |
| Cc1ccc(S(=O)(=O)n2ccc3cc(/C=C/S(=O)(=O)F)ccc32)cc1 [Compound 45] |  |  |  | IC50 (human melanoma cell A375; [7]): 8.61 ± 0.28 µM; IC50 ([2]; Homo sapiens, SMMC-7721, 48 h): 15.6 ± 0.78 µM |
| O=S(=O)(F)/C=C/C=C/c1ccc2ccccc2c1 [Compound 55] |  |  |  | IC50 (human melanoma cell A375; [7]): 5.87 ± 0.2 µM; IC50 [1, 8]: 14.3 ± 1.07 µM; IC50 ([2]; Homo sapiens, SMMC-7721, 48 h): 34.1 ± 1.45 µM; IC50 (telomerase): 47.2 ± 1.52 µM |
| O=S(=O)(F)/C=C/c1ccc(F)cc1F [Compound 32] | 12.3 ± 0.41 | 16.1 ± 0.41 | 27 ± 0.9 |  |
| O=S(=O)(F)/C=C/C=C/c1ccccc1Cl [Compound 53] | 17.5 ± 0.98 | 28.5 ± 1.14 | 57.3 ± 2.01 |  |
| CS(=O)(=O)c1ccc(/C=C/S(=O)(=O)F)cc1 [Compound 66] | 8.56 ± 0.49 | 30.3 ± 1.22 | 52 ± 1.7 | IC50 [3]: 19.6 ± 1.17 µM |
| CC(=O)c1ccc(/C=C/S(=O)(=O)F)cc1 [Compound 11] | 10.6 ± 0.9 | 5.66 ± 0.28 | 65.8 ± 1.79 |  |
| O=S(=O)(F)/C=C/c1cccc2ccccc12 [Compound 30] | 28 ± 1.31 | 25.1 ± 0.99 | 2.29 ± 0.17 |  |
| O=S(=O)(F)/C=C/c1cccc(O)c1 [Compound 34] | 5.37 ± 0.6 | 23.4 ± 0.88 | 23 ± 0.45 |  |
| CCOC(=O)c1cccc(/C=C/S(=O)(=O)F)c1 [Compound 77] | 13.7 ± 1.29 | 19.4 ± 0.79 | 23.6 ± 1.45 | IC50 [3]: 51.8 ± 0.87 µM |
| O=S(=O)(F)/C=C/c1ccc(O)cc1 [Compound 33] | 4.96 ± 0.51 | 19 ± 0.65 | 26.2 ± 0.39 | IC50 [3]: 35.9 ± 0.79 µM |
| O=Cc1cccc(/C=C/S(=O)(=O)F)c1 [Compound 60] | 10.7 ± 0.8 |  |  |  |
| CC(C)S(=O)(=O)c1ccc(/C=C/S(=O)(=O)F)cc1 [Compound 82] |  |  |  | IC50 (human melanoma cell A375; [7]): 24.2 ± 0.6 µM; IC50 [1, 8]: 28.7 ± 1.21 µM; IC50 ([2]; Homo sapiens, SMMC-7721, 48 h): 8.95 ± 0.27 µM; IC50 (telomerase): 37.9 ± 2.19 µM |
| COc1cccc(/C=C/S(=O)(=O)F)c1 [Compound 16] | 21.1 ± 0.87 | 28.5 ± 1.78 | 45.6 ± 1.29 |  |
| Cc1ccc(/C=C/S(=O)(=O)F)cc1 [Compound 65] | 32.7 ± 1.22 | 30.5 ± 1.29 |  |  |
| Cc1ccc(S(=O)(=O)n2cc(/C=C/S(=O)(=O)F)c3ccccc32)cc1 [Compound 44] |  |  |  | IC50 (human melanoma cell A375; [7]): 5.34 ± 0.3 µM; IC50 ([2]; Homo sapiens, SMMC-7721, 48 h): 9.24 ± 0.4 µM; IC50 (telomerase): 15.2 ± 1.56 µM |
| O=S(=O)(F)/C=C/c1cccc(F)c1 [Compound 18] |  |  |  | IC50 (human melanoma cell A375; [7]): ~3 µM; IC50 (human melanoma cell A375; read-out: IC50 A375, antiproliferative, MTT, 48 h exposure): 3.82 ± 0.31 µM; IC50 [1, 8]: 5.24 ± 0.4 µM; IC50 ([2]; Homo sapiens, SMMC-7721, 48 h): 24.8 ± 1.58 µM; IC50 (telomerase): 1.09 ± 0.11 µM |
| O=S(=O)(F)/C=C/C=C/c1ccccc1C(F)(F)F [Compound 54] | 17.5 ± 1.52 | 28.5 ± 1.16 | 19 ± 0.71 |  |
| O=S(=O)(F)/C=C/c1cc(C(F)(F)F)cc(C(F)(F)F)c1 [Compound 68] | 19.7 ± 1 | 21.2 ± 0.8 |  | IC50 [3]: 37.4 ± 1.35 µM |
| O=S(=O)(F)/C=C/c1ccc(I)cc1 [Compound 63] |  |  |  | IC50 (telomerase): 45.3 ± 1.87 µM |
| O=S(=O)(F)/C=C/c1ccccc1Cl [Compound 78] | 26.3 ± 2.35 | 35.2 ± 1.28 |  |  |
| Cc1ccc(/C=C/S(=O)(=O)F)c(C)c1 [Compound 27] | 7.83 ± 0.4 | 39.8 ± 2.55 | 50.7 ± 1.82 |  |
| O=S(=O)(F)/C=C/c1cc(O)cc(O)c1 [Compound 36] |  |  |  | IC50 (human melanoma cell A375; [7]): 4.01 ± 0.68 µM; IC50 [1, 8]: 37.2 ± 1.4 µM; IC50 ([2]; Homo sapiens, SMMC-7721, 48 h): 29 ± 0.78 µM; IC50 (telomerase): 1.44 ± 0.22 µM |
